How the values were obtained:
[1] = tested on: Botryotinia fuckeliana (Botrytis cinerea); assay: Botryotinia fuckeliana (Botrytis cinerea) / liquid culture (gray mould); format: cell-based; details: 72 h, growth inhibition photometrically 3-4 days after application, compared to untreated control
[2] = tested on: Glomerella lagenarium (Colletotrichum lagenarium); assay: Glomerella lagenarium (Colletotrichum lagenarium) / liquid culture (anthracnose); format: cell-based; details: Colletotrichum orbiculare, growth inhibition photometrically 3-4 days after application, compared to untreated control
Fusarium culmorum [3] = assay: microbe, parasite or virus in culture; format: cell-based; details: 72 h, read-out: control of Fusarium culmorum
Fusarium culmorum [4] = assay: whole plant or invertebrate; format: in vivo; details: in Triticum aestivum, read-out: control of Fusarium culmorum
[5] = tested on: Gibberella zeae (Fusarium graminearum); assay: whole plant or invertebrate; format: in vivo; details: in Triticum aestivum, read-out: control of Gibberella zeae
[6] = tested on: Monographella nivalis (Microdochium nivale); assay: Monographella nivalis (Microdochium nivale) / liquid culture (foot rot cereals); format: cell-based; details: 96 h, growth inhibition photometrically 4-5 days after application, compared to untreated control
[7] = tested on: Magnaporthe grisea (Pyricularia oryzae); assay: microbe, parasite or virus in culture; format: cell-based; details: 72 h, read-out: control of Magnaporthe grisea

Structure (SMILES) | inhibition of growth at 20 ppm [1] | inhibition of growth at 20 ppm [2] | inhibition of growth at 20 ppm (Fusarium culmorum [3]) | pest or weed control at 200 ppm (Fusarium culmorum [4]) | pest or weed control at 200 ppm [5] | inhibition of growth at 20 ppm [6] | inhibition of growth at 20 ppm [7] | melting point
CC(C)(C)COCC(C)(CC(F)(F)F)NC(=O)c1cnc2c(F)cccc2c1 (stereo not shown) [E.001, N-[1-(2,2-dimethyl-propoxymethyl)-3,3,3-trifluoro-1-methyl-propyl]-8-fluoro-quinoline-3-carboxamide] | ≥ 80% | ≥ 80% | ≥ 80% | ≥ 80% | ≥ 80% | ≥ 80% | ≥ 80% | 74 to 78 °C
CC1(C)CC(OCC(C)(CC(F)(F)F)NC(=O)c2cnc3c(Cl)cccc3c2)C1 (stereo not shown) [E.002, 8-chloro-N-[1-[(3,3-dimethyl-cyclobutoxy)-methyl]-3,3,3-trifluoro-1-methylpropyl]-quinoline-3-carboxamide] | ≥ 80% | ≥ 80% | ≥ 80% | ≥ 80% | – | ≥ 80% | ≥ 80% | 127 to 130 °C
CC(COC1CCC(F)(F)CC1)(CC(F)(F)F)NC(=O)c1cnc2c(F)cccc2c1 (stereo not shown) [E.003, N-[1-[(4,4-difluoro-cyclohexoxy)-methyl]-3,3,3-trifluoro-1-methyl-propyl]-8-fluoro-quinoline-3-carboxamide] | ≥ 80% | ≥ 80% | ≥ 80% | ≥ 80% | ≥ 80% | ≥ 80% | ≥ 80% | 42 to 44 °C
CC1(C)CC(OCC(C)(CC(F)(F)F)NC(=O)c2cnc3c(F)cccc3c2)C1 (stereo not shown) [E.004, N-[1-[(3,3-dimethyl-cyclobutoxy)-methyl]-3,3,3-trifluoro-1-methyl-propyl]-8-fluoro-quinoline-3-carboxamide] | ≥ 80% | ≥ 80% | ≥ 80% | ≥ 80% | – | ≥ 80% | ≥ 80% | 80 to 84 °C
CC(COc1ccc(Cl)cc1)(CC(F)(F)F)NC(=O)c1cnc2c(F)cccc2c1 (stereo not shown) [E.005, N-[1-[(4-chloro-phenoxy)methyl]-3,3,3-trifluoro-1-methyl-propyl]-8-fluoro-quinoline-3-carboxamide] | ≥ 80% | ≥ 80% | ≥ 80% | ≥ 80% | – | ≥ 80% | ≥ 80% | 94 to 96 °C
C[C@](COC1CCCCC1)(CC(F)(F)F)NC(=O)c1cnc2c(F)cccc2c1 [E.016, N-[(1R)-1-(cyclo-hexoxymethyl)-3,3,3-trifluoro-1-methyl-propyl]-8-fluoro-quinoline-3-carboxamide] | ≥ 80% | ≥ 80% | ≥ 80% | ≥ 80% | – | ≥ 80% | ≥ 80% | 80 to 85 °C
CC(COC1CCCCCC1)(CC(F)(F)F)NC(=O)c1cnc2c(F)cccc2c1 (stereo not shown) [E.026, N-[1-(cyclohept-oxymethyl)-3,3,3-trifluoro-1-methyl-propyl)-8-fluoro-quinoline-3-carboxamide] | ≥ 80% | ≥ 80% | ≥ 80% | ≥ 80% | – | ≥ 80% | ≥ 80% | 80 to 85 °C
CC(COC1CCCCC1)(CC(F)(F)F)NC(=O)c1cnc2c(F)cccc2c1 (stereo not shown) [E.027, N-[1-(cyclohexoxy-methyl)-3,3,3-trifluoro-1-methyl-propyl]-8-fluoro-quinoline-3-carboxamide] | ≥ 80% | ≥ 80% | ≥ 80% | ≥ 80% | ≥ 80% | ≥ 80% | ≥ 80% | –
CC(C)CC(C)(COCc1ccccc1)NC(=O)c1cnc2c(F)cccc2c1 (stereo not shown) [E.030, N-[1-(benzyloxy-methyl)-1,3-dimethyl-butyl]-8-fluoro-quinoline-3-carboxamide] | ≥ 80% | ≥ 80% | ≥ 80% | – | – | ≥ 80% | ≥ 80% | 120 to 122 °C
COCC(C)(CC(C)C)NC(=O)c1cnc2c(F)cccc2c1 (stereo not shown) [E.032, 8-fluoro-N-[1-(methoxymethyl)-1,3-dimethyl-butyl]quinoline-3-carboxamide] | ≥ 80% | – | ≥ 80% | – | – | – | – | 136 to 138 °C

Source: patent publication US11185073B2, “Microbiocidal quinoline (thio)carboxamide derivatives” (SYNGENTA PARTICIPATIONS AG, priority 2017, dated 2021)
